# Reference: patent US5294724A, “4-hydroxytetrahydropyran-2-ones and the corresponding dihydroxycarboxylic acid derivatives, salts and esters and a process for their preparation” (priority 1989, dated 1994)
# pIC50: −log10 of the molar value. Counter-ions that a name gives are not always drawn. Like-named read-outs stand apart in the source and are kept apart here.
# Assays:
# [1] = test system: microsomal lipid peroxidation; test: Inhibition of microsomal lipid peroxidation (in vitro); format: biochemical; details: for pIC50: microsomes, read-out: IC50 (50% inhibition of lipid peroxidation)
# Description: 5) Inhibition of microsomal lipid peroxidation (in vitro)
# The inhibition of lipid peroxidation was measured under the experimental conditions described by H. Wafers and H. Sies, Eur. J. Biochem. 174, 353-357 (1988). The microsomes were obtained according to the literature cited therein. IC50 denotes the concentration of the test compound in moles per liter which causes a 50% inhibition of lipid peroxidation.
# serum total cholesterol = test: Hypocholesterolemic activity in rabbits after p.o. administration; format: in vivo, male white New Zealand rabbits; details: rabbit p.o.
# Description: 4) Hypocholesterolemic activity in rabbits after p.o. administration
# Normolipemic male white New Zealand rabbits, body weight 3-3.5 kg, were divided into groups of 5 animals. The groups in each case received one of the test compounds (sodium salts of the compounds of the formula II), suspended in 1% aqueous methylcellulose (®Tylose MH 300), 5.10 or 20 mg/kg/day daily in the morning by stomach tube. The animals of the control groups received only Tylose MH 300. Every 3-4 days samples of venous blood were taken from all animals 20 hours after the oral administration. The serum total cholesterol was determined enzymatically in these samples using the test combination of Boehringer Mannheim (CHOD-PAP high performance method). The serum cholesterol level of the treated animals was compared with that of the control groups. A "discharge phase" followed the 20-day "treatment phase", in which the change in the serum cholesterol level was further monitored.
# HEP G2 cells = test: Inhibition of cholesterol biosynthesis in cell cultures (HEP G2 cells), incorporation of 14C-sodium acetate in cholesterol; format: cell-based; details: for pIC50 / IC70: Homo sapiens; for Relative potency in %: from IC50
# Description: 2) Inhibition of cholesterol biosynthesis in cell cultures (EEP G2 cells)
# Determination of the inhibition of the incorporation of ^14 C-sodium acetate in cholesterol
# Monolayers of HEP G2 cells in lipoprotein-free medium were preincubated with various concentrations of the sodium salts of the dihydroxycarboxylic acids of the formula II for 1 hour. After adding ^14 C-labeled sodium acetate, the incubation was continued for 3 hours. Tritium-labeled cholesterol was added as an internal standard and an aliquot of the cells was subjected to alkaline hydrolysis. The lipids were extracted using chloroform/methanol 2: 1. After adding carrier cholesterol, the lipid mixture was preparatively separated on TLC plates using chloroform/acetone 9: 1. The cholesterol zone was made visible by staining with iodine vapor, additionally detected using a TLC radio scanner and then scraped off. The amount of ^14 C-cholesterol formed was determined scintigraphically and related to mg of cell protein. The same procedure was carried out with cells from the Bame culture without preincubation with a test compound (so-called "solvent control"). The potency of the test compounds was determined by comparison of the biosynthesized ^14 C-cholesterol in test runs and in "solvent control".
# serum lipoproteins = test: Action on serum lipoproteins and other metabolic parameters of male rats in the subchronic test; format: in vivo; details: rat
# Description: 3) Action on serum lipoproteins and other metabolic parameters of male rats in the subchronic test
# Groups of male rats of the strain HOE: WISKf (SPF 71) having a starting weight of above 180 g received the test preparations daily in the morning (sodium salts of the dihydroxycarboxylic acids of the formula II) in polyethylene glycol 400 by stomach tube; the respective control group received only the vehicle. The last (7th) administration was carried out 24 hours before taking blood and sacrificing. There was free access to food and water during the experiment. 24 hours before taking blood, which wall carried out retroorbitally under slight ether anesthesia before and after the treatment period (i.e. on the 1st and 8th day), the food was withdrawn. Total cholesterol was determined in the serum of each individual animal [CHODPAP high performance method of Boehringer Mannheim], and, as a measure of the triglycerides, total glycerol was also determined analytically from the serum pool of all the animals of one group [GPO-PAP high performance method, Boehringer Mannheim].
# Immediately after taking blood, the animals were sacrificed by dislocation of the spine, and the relative liver weight, the change in body weight and the food consumption were determined.
# For the analysis of the serum lipoproteins, the serum of all the rats of one group was pooled. The serum lipoproteins were separated using the preparative ultracentrifuge.
# The following conditions were used for the separation of the fractions VLDL, LDL and HDL:
# The determination of the protein was carried out by the method of Lowry et al. [LOWRY O. H., ROSEBOROUGH, N.J., PARR, A. L. and RANDELL, R. J.: J. Biol. Chem. 193, 265 (1951)].
# HMG-CoA reductase = target: T1, HMG-CoA reductase (Rattus norvegicus, UniProt P51639); test: Inhibition of HMG-CoA reductase activity in solubilized enzyme preparations from rat liver microsomes; format: biochemical; details: sodium salts of the dihydroxycarboxylic acids; mean of 3 parallel samples; read-out: IC50 (molar concentration necessary for a 50% inhibition)
# T1 construct: solubilized enzyme preparations from liver microsomes of rats; from tissue; host or cells: rat liver microsomes (cholestyramine-induced rats), solubilized
# T1 sequence (P51639 1-887): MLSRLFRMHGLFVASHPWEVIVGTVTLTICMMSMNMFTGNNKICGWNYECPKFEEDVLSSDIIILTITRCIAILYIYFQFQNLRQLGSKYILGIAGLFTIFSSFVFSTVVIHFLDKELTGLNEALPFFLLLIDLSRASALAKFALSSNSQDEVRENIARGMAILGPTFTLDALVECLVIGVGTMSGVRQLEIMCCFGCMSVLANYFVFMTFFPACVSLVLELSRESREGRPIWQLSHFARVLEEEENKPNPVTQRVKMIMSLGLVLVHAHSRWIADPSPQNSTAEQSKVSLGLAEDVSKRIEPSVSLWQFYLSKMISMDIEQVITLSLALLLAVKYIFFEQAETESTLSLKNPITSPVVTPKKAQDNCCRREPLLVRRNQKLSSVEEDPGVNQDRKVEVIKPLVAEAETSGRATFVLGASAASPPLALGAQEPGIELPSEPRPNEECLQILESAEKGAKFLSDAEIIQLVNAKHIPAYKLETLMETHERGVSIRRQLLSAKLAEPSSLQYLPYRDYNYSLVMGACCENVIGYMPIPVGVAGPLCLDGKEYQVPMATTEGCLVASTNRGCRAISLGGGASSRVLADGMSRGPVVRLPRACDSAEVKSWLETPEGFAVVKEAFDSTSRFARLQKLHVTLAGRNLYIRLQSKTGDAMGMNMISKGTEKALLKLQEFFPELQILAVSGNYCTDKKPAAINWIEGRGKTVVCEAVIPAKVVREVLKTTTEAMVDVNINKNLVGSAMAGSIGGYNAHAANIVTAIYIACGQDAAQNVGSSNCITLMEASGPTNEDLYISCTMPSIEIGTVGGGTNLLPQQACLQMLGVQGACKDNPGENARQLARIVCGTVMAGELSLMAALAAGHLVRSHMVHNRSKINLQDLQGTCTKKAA
# Description: 1) Inhibition of HKG-CoA reductase activity in solubilized enzyme preparations from rat liver microsomes
# HMG-CoA reductase activity was measured on solubilized enzyme preparations from liver microsomes of rats which had been induced by conversion into the day/night rhythm using cholestyramine (®Cuemid). (S,R)^14 C-HMG-CoA was used as a substrate, and the concentration of NADPH was maintained during the incubation by a regenerating system. The separation of ^14 C-mevalonate from substrate and other products (for example ^14 C-HMG) was carried out by column elution, the elution profile of each individual sample being determined. The regular addition of ^3 H-mevalonate was avoided as the determination gives the data relative to the inhibitory action. The enzyme-free control, the enzyme-containing normal mixture (=100%) and those containing preparation additives were in each case treated together in one series of experiments. The sodium salts of the dihydroxycarboxylic acids of the formula II were always employed as the preparation in this test. Each individual value was formed as the mean value of 3 parallel samples. The significance of the mean value differences between preparation-free and preparation-containing samples was evaluated by the t-test.
# [2] = 10 mg then 20 mg/kg per day, discharge phase 3
# [3] = 10 mg then 20 mg/kg per day, discharge phase 6
# [4] = 10 mg then 20 mg/kg per day, discharge phase 11
# [5] = 10 mg then 20 mg/kg per day, discharge phase 22
# [6] = 10 mg/kg per day (up to 10th day), administration 3
# [7] = 10 mg/kg per day (up to 10th day), administration 10
# [8] = 20 mg/kg per day (from 11th day), administration 14
# [9] = 20 mg/kg per day (from 11th day), administration 17
# [10] = 20 mg/kg per day (from 11th day), administration 20
# [11] = HepG2, sodium salts, test compounds corrected by deviation of mevinolin sodium from its mean value, read-out: IC50 (concentration necessary for a 50% inhibition)
# [12] = 100 mg/kg daily by stomach tube, 7 administrations
smiles,measurement,setting,value
"Oc1c(-c2ccc(F)cc2)cc(Sc2ccc(F)cc2)cc1C1CC1 [Process Example 12, 2-(p-Fluorophenyl)-4-(p-fluorophenylthio)-6-cyclopropylphenol]",Inhibition at 10^-5 mol/l,[1],99%
same,pIC50,[1],5.82
CC[C@H](C)C(=O)O[C@H]1C[C@@H](C)C=C2C=C[C@H](C)[C@H](CC[C@@H]3C[C@@H](O)CC(=O)O3)[C@H]21 [Mevinolin],"Serum total cholesterol, % change compared to control group",serum total cholesterol; [2],+14%
same,"Serum total cholesterol, % change compared to control group",serum total cholesterol; [3],-1%
same,"Serum total cholesterol, % change compared to control group",serum total cholesterol; [4],+2%
same,"Serum total cholesterol, % change compared to control group",serum total cholesterol; [5],0%
same,"Serum total cholesterol, % change compared to control group",serum total cholesterol; [6],-12%
same,"Serum total cholesterol, % change compared to control group",serum total cholesterol; [7],-30%
same,"Serum total cholesterol, % change compared to control group",serum total cholesterol; [8],-27%
same,"Serum total cholesterol, % change compared to control group",serum total cholesterol; [9],-24%
same,"Serum total cholesterol, % change compared to control group",serum total cholesterol; [10],-26%
"CC(C)c1c(O)c(C(C)C)c(C(C)C)c(O)c1-c1ccc(F)cc1 [Process Example 22, 2-(p-Fluorophenyl)-3,5,6-triisopropyl-1,4-hydroquinone]",Inhibition at 10^-5 mol/l,[1],99%
same,pIC50,[1],5.80
"CC[C@H](C)C(=O)O[C@H]1C[C@@H](C)C=C2C=C[C@H](C)[C@H](CC[C@@H](O)C[C@@H](O)CC(=O)O)[C@H]21 [mevinolin sodium salt, reference compound]",pIC50,HEP G2 cells; [11],7.30
same,IC70,"HEP G2 cells; HepG2, sodium salts, test compounds corrected by deviation of mevinolin sodium from its mean value, read-out: IC70 (concentration necessary for a 70% inhibition)",150 nM
same,IC70 (concentration necessary for a 70% inhibition),"HEP G2 cells; sodium salts, test compounds corrected by deviation of mevinolin sodium from its mean value",150 nM
"CC(C)c1cc(Sc2ccccc2)cc(-c2ccc(F)cc2)c1O [Process Example 7, 2-(p-Fluorophenyl)-4-(phenylthio)-6-isopropylphenol]",Inhibition at 10^-5 mol/l,[1],92%
same,pIC50,[1],5.40
"CC(C)Sc1cc(-c2ccc(F)cc2)c(O)c(C(C)C)c1 [Process Example 8, 2-(p-Fluorophenyl)-4-(isopropylthio)-6-isopropylphenol]",Inhibition at 10^-5 mol/l,[1],1%
"CCOC(=O)C(C)(C)Oc1ccc(Cl)cc1 [clofibrate, reference compound]","Body weight, % changes in the mean value relative to starting",serum lipoproteins; [12],+8%
same,"Food consumption, % changes in the mean value relative to control",serum lipoproteins; [12],+1%
same,"Glycerol VLDL, % change compared to control",serum lipoproteins; [12],+4%
same,"Liver weight, % changes in the mean value relative to control",serum lipoproteins; [12],+15%
same,"Protein LDL, % change compared to control",serum lipoproteins; [12],-9%
same,"Protein VLDL, % change compared to control",serum lipoproteins; [12],-16%
same,"Total cholesterol HDL, % change compared to control",serum lipoproteins; [12],-29%
same,"Total cholesterol LDL, % change compared to control",serum lipoproteins; [12],-19%
same,"Total cholesterol VLDL, % change compared to control",serum lipoproteins; [12],-40%
same,Cholesterol HDL/LDL,"serum lipoproteins; 100 mg/kg daily, control standardization to 1.00",0.88
"CC(C)c1cc(SC(C)(C)Sc2cc(-c3ccc(F)cc3)c(O)c(C(C)C)c2)cc(-c2ccc(F)cc2)c1O [Process Example 5, 4,4-(Isopropylidenedithio)-bis-[(2-isopropyl-6-p-fluorophenyl)phenol]]",Inhibition at 10^-5 mol/l,[1],11%
"CC(C)c1cc(-c2ccc(F)cc2)c(OC[C@@H](O)C[C@@H](O)CC(=O)[O-])c(C(C)C)c1.[Na+] [Compound C, 3(R),5(S)-dihydroxy-6[-2-(4-fluorophenyl)-4,6-diisopropylphenoxy]hexanoicacid sodium salt]",pIC50,"HEP G2 cells; HepG2, read-out: IC50 (concentration necessary for a 50% inhibition)",7.57
same,IC70,"HEP G2 cells; HepG2, read-out: IC70 (concentration necessary for a 70% inhibition)",70 nM
same,Relative potency in %,HEP G2 cells; mevinolin sodium = 100,185%
same,Relative potency in % (value in parentheses),"HEP G2 cells; mevinolin sodium = 100, in parentheses, corresponds to IC70",214%
same,"Serum total cholesterol, % change compared to control group",serum total cholesterol; [2],-13%
same,"Serum total cholesterol, % change compared to control group",serum total cholesterol; [3],-23%
same,"Serum total cholesterol, % change compared to control group",serum total cholesterol; [4],-16%
same,"Serum total cholesterol, % change compared to control group",serum total cholesterol; [5],+18%
same,"Serum total cholesterol, % change compared to control group",serum total cholesterol; [6],+7%
same,"Serum total cholesterol, % change compared to control group",serum total cholesterol; [7],-32%
same,"Serum total cholesterol, % change compared to control group",serum total cholesterol; [8],-31%
same,"Serum total cholesterol, % change compared to control group",serum total cholesterol; [9],-37%
same,"Serum total cholesterol, % change compared to control group",serum total cholesterol; [10],-36%
CC(C)c1cc(Sc2ccccc2)cc(-c2ccc(F)cc2)c1OC[C@@H](O)C[C@@H](O)CC(=O)O [Example 4],pIC50,HMG-CoA reductase,8.10
same,pIC50,HEP G2 cells; [11],8.10
same,Relative potency in %,HEP G2 cells; mevinolin sodium = 100,625%
"CC(C)c1cc(S)cc(-c2ccc(F)cc2)c1O [Process Example 4, 2-(P-Fluorophenyl)-4-mercapto-6-isopropylphenol]",Inhibition at 10^-5 mol/l,[1],90%
same,pIC50,[1],5.36
"CC(=O)Oc1c(-c2ccc(F)cc2)c(C(C)C)c(O)c(C(C)C)c1C(C)C [Process Example 23, 2,5,6-Triisopropyl-3-(p-fluorophenyl)-4-acetoxyphenol]",Inhibition at 10^-5 mol/l,[1],98%
same,pIC50,[1],5.55
